# Measured values as given in PMC10590383, “Repurposing conformational changes in ANL superfamily enzymes to rapidly generate biosensors for organic and amino acids” (Nature Communications, 2023).
# Legend:
# GECFINDER-Phe3 = target: T1, GECFINDER-Phe3 (Aneurinibacillus migulanus, UniProt P0C061); assay: Fluorescence dose-response of purified cpEGFP sensors (0.75 uM) in 100 mM Tris-HCl pH 7.5, room temperature, 1 mM ATP, 2.5 mM MgCl2; excitation 400, 460 or 480 nm by sensor, emission 510 nm; logistic five-parameter fit.; type: biochemical; conditions: n = 3
# T1 construct: gene grsA; GrsA-PheA-PCP; cpEGFP inserted in hinge B, linkers VF-QS
# T1 sequence (P0C061 1-617): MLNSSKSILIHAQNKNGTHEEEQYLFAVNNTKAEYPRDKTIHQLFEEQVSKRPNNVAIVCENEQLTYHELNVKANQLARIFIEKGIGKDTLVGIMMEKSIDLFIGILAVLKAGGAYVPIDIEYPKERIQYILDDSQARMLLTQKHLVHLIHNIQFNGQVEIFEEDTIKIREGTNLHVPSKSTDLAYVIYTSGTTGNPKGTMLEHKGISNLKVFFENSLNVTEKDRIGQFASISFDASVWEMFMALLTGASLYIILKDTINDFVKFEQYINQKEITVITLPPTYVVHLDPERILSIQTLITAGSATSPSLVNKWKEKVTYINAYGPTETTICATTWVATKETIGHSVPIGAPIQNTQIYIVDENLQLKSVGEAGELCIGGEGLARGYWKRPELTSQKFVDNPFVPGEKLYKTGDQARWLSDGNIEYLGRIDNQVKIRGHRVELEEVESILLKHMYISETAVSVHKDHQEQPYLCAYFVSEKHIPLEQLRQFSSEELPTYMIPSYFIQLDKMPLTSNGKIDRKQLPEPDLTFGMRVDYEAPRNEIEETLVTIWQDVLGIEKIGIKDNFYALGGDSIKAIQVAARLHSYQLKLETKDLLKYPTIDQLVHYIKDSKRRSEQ
# Method: (§1) Fig. 3 Dose–response curves and fluorescence spectrums of […]s. a, c, e, g, i, k Dose–response curve of purified […]s with increasing concentrations of ligand in 100 mM Tris-HCl buffer (pH=7.5). The normalized ΔF/F0 value increased after ligand binding. All data shown are mean ± S.D. (n = 3 biologically independent samples). b, d, f, h, j, l The fluorescence spectra of […]s changed as the ligand concentration increased. All data shown are mean ± S.D. (n = 3 biologically independent samples). Source data are provided as a Source data file.
# (§2) The study conducted dose–response curve, substrate specificity, and fluorescent spectrum analyses in 100-mM Tris buffer (pH = 7.5), while pH stability experiments were performed in 100-mM Tris buffer at three different pH values (6.5, 7.5, and 8.5) at room temperature. […] protein at a concentration of 0.75 μM, various small molecule concentrations, 1 mM ATP, and 2.5 mM MgCl2 were used in the experiments. Fluorescent signals were detected using a Microplate Reader (Synergy H4, Bio Tek) at an excitation/emission wavelength of 460 nm/510 nm or 480 nm/510 nm. The dose-response curve was determined immediately after the addition of the analyte. The total duration of the measurement was 15 min, with readings taken at one-minute intervals. The dose-response curve was plotted using the fluorescence values obtained after achieving stability in the fluorescence signal. The dose-response curves were fitted using the logistic model LOGISTIC5 available in Origin 2021, which could provide a more adequate fit to asymmetric dose-response data[62],[63]. Excitation spectra were scanned from 300 to 540 nm with a step size of 5 nm, and the emission wavelength was set to 560 nm. Emission spectra were scanned from 470 to 700 nm with a step size of 5 nm, and the excitation wavelength was set to 450 nm. The thermal stability of […] was analyzed using the UNcle multifunctional protein stability analysis system. Measurements were performed in 20 mM MOPS buffer with 2 mM DTT at a sample concentration of 1 mg/mL. Absolute fluorescence quantum yields were measured using an absolute photoluminescence quantum yield spectrometer (FS5, Edinburgh).
# GECFINDER-Tyr = target: T2, GECFINDER-Tyr (Aneurinibacillus migulanus, UniProt P0C061, W239S); assay: Fluorescence dose-response of purified binding-pocket-engineered sensors (0.75 uM) in 100 mM Tris-HCl pH 7.5, room temperature, 1 mM ATP, 2.5 mM MgCl2, excitation 460 or 480 nm, emission 510 nm; logistic five-parameter fit.; type: biochemical; conditions: n = 3
# T2 construct: gene grsA
# Method: (§3) Fig. 4 Engineering ligand specificity of GrsA-PheA for generating […]s. a The selectivity-conferring code of Phe and Leu A domains. b–f Dose–response curve of purified […]s with increasing concentrations of ligands in 100 mM Tris-HCl buffer (pH=7.5). All data shown are means ± S.D. (n = 3 biologically independent samples). g A series of […] reactions was tested to show the […]’s specificity with 20 proteinogenic amino acids. The values on the heatmap represent the ΔF/F0 value normalized to each […]’s maximal ΔF/F0 value ((ΔF/F0)/maximal ΔF/F0). The concentrations of 20 amino acids were 100 μM. The color indicates the average value of three independent biological replicates after 15 min. All data shown are means ± S.D. (n = 3 biologically independent samples). Source data are provided as a Source data file.
# as §2
# [1] = Dose–response curve of purified […]s with S-β-phenylalanine; type: biochemical
# Method: as §3, §2
# [2] = Substrate (ligand) specificity of […]s; type: biochemical; conditions: Supplementary Fig. 3 c; substrate specificity
# Method: as §3
# Ligand specificity is an important biosensors feature. Generally, the NRPS A domains have high specificity for their substrates because they are the first “gatekeeper” of NRPSs and ensure that the correct monomers are activated and thioesterified[32],[33]. Therefore, we speculated that this property would be inherited by our […]s because the ligand-binding pockets were unchanged during the […] creation process. Twenty proteinogenic amino acids were used to test the ligand specificity of […]s. […] We also investigated the dependence of […]s on Mg^2+ and ATP (Supplementary Fig. 4). […] This phenomenon corroborates with the distinct conformational changes observed in Hinge A of Nt4CL2 (Mg^2++ATP) (PDB ID: 5BSM) and Nt4CL2 (Coumaroyl-AMP) (PDB ID: 5BST) reported in the literature (Supplementary Fig. 4k), where the direction of motion in hinge A differs. […] During the determination of quantum yield, we observed that the absolute quantum yield of the […] variants ranged from 0.3 to 0.6 upon addition of the respective substrates, which show no significant difference with that reported in literature. The specific values are provided in Supplementary Table 2.
# as §2
# GECFINDER-SβF = assay: Fluorescence dose-response of purified binding-pocket-engineered sensors (0.75 uM) in 100 mM Tris-HCl pH 7.5, room temperature, 1 mM ATP, 2.5 mM MgCl2, excitation 460 or 480 nm, emission 510 nm; logistic five-parameter fit.; type: biochemical; conditions: n = 3
# Method: as §3, §2
# [3] = Fluorescence spectra / excitation wavelength scan of […]s; type: physicochemical; conditions: Wavelength 300 nm
# Method: Fig. 3 Dose–response curves and fluorescence spectrums of […]s. a, c, e, g, i, k Dose–response curve of purified […]s with increasing concentrations of ligand in 100 mM Tris-HCl buffer (pH=7.5). […] All data shown are mean ± S.D. (n = 3 biologically independent samples). Source data are provided as a Source data file.
# as §2
# [4] = Response of purified […] to proline; type: biochemical
# Method: as §1, §2
structure (smiles),measurement,setting,value
"N[C@@H](Cc1ccc(O)cc1)C(=O)O [Tyr, tyrosine]",EC50,GECFINDER-Phe3,225 ± 17.9 µM
same,EC50,GECFINDER-Tyr,89.8 ± 6.71 µM
N[C@@H](CC(=O)O)c1ccccc1 [S-β-Phe],"AVE, dose-response Fig. 4 b",[1]; substrate S-β-Phe 0.0001 μM,-0.0002792
same,"AVE, dose-response Fig. 4 b",[1]; substrate S-β-Phe 0.001 μM,-0.0008239
same,"AVE, dose-response Fig. 4 b",[1]; substrate S-β-Phe 0.01 μM,-0.003663
same,"AVE, dose-response Fig. 4 b",[1]; substrate S-β-Phe 0.1 μM,-0.01739
same,"AVE, dose-response Fig. 4 b",[1]; substrate S-β-Phe 1 μM,0.02113
same,"AVE, dose-response Fig. 4 b",[1]; substrate S-β-Phe 10 μM,0.3498
same,"AVE, dose-response Fig. 4 b",[1]; substrate S-β-Phe 50 μM,0.6956
same,"AVE, dose-response Fig. 4 b",[1]; substrate S-β-Phe 100 μM,0.8621
same,"AVE, dose-response Fig. 4 b",[1]; substrate S-β-Phe 500 μM,0.9305
same,"AVE, dose-response Fig. 4 b",[1]; substrate S-β-Phe 1000 μM,0.8832
same,"AVE, dose-response Fig. 4 b",[1]; substrate S-β-Phe 5000 μM,0.7695
same,"AVE, dose-response Fig. 4 b",[1]; substrate S-β-Phe 10000 μM,0.7514
same,"AVE, dose-response Fig. 4 f",[1]; substrate S-β-Phe 0.0001 μM,-0.0001186
same,"AVE, dose-response Fig. 4 f",[1]; substrate S-β-Phe 0.001 μM,-0.005617
same,"AVE, dose-response Fig. 4 f",[1]; substrate S-β-Phe 0.01 μM,0.008482
same,"AVE, dose-response Fig. 4 f",[1]; substrate S-β-Phe 0.1 μM,0.09012
same,"AVE, dose-response Fig. 4 f",[1]; substrate S-β-Phe 1 μM,0.4944
same,"AVE, dose-response Fig. 4 f",[1]; substrate S-β-Phe 10 μM,1.228
same,"AVE, dose-response Fig. 4 f",[1]; substrate S-β-Phe 50 μM,1.751
same,"AVE, dose-response Fig. 4 f",[1]; substrate S-β-Phe 100 μM,1.939
same,"AVE, dose-response Fig. 4 f",[1]; substrate S-β-Phe 500 μM,2.2005
same,"AVE, dose-response Fig. 4 f",[1]; substrate S-β-Phe 1000 μM,2.208
same,"AVE, dose-response Fig. 4 f",[1]; substrate S-β-Phe 5000 μM,2.26
same,"AVE, dose-response Fig. 4 f",[1]; substrate S-β-Phe 10000 μM,2.258
same,"fluorescence response of GECFINDER to each substrate, AVE of 3 repeats",[2],2.126
"N[C@H](CC(=O)O)c1ccccc1 [R-β-Phe, R-β-phenylalanine]",EC50,GECFINDER-SβF,54.6 ± 7.66 µM
O=C(O)[C@@H]1CCCN1 [Pro],"Wavelength scan, AVE of Repeat 1-3 (Fig. 3 h)",[3]; 0.0002 μM Pro,1526
same,"Wavelength scan, AVE of Repeat 1-3 (Fig. 3 h)",[3]; 20 μM Pro,1565
same,"Wavelength scan, AVE of Repeat 1-3 (Fig. 3 h)",[3]; 2000 μM Pro,1543.33
same,"Dose-response, AVE of Repeat 1-3 (Fig. 3 g)",[4]; Pro 0.0002 μM,-7.17e-17
same,"Dose-response, AVE of Repeat 1-3 (Fig. 3 g)",[4]; Pro 0.002 μM,0.0174
same,"Dose-response, AVE of Repeat 1-3 (Fig. 3 g)",[4]; Pro 0.02 μM,0.02154
same,"Dose-response, AVE of Repeat 1-3 (Fig. 3 g)",[4]; Pro 0.2 μM,0.03875
same,"Dose-response, AVE of Repeat 1-3 (Fig. 3 g)",[4]; Pro 2 μM,0.04783
same,"Dose-response, AVE of Repeat 1-3 (Fig. 3 g)",[4]; Pro 20 μM,0.05475
same,"Dose-response, AVE of Repeat 1-3 (Fig. 3 g)",[4]; Pro 100 μM,0.06466
same,"Dose-response, AVE of Repeat 1-3 (Fig. 3 g)",[4]; Pro 200 μM,0.07263
same,"Dose-response, AVE of Repeat 1-3 (Fig. 3 g)",[4]; Pro 500 μM,0.09025
same,"Dose-response, AVE of Repeat 1-3 (Fig. 3 g)",[4]; Pro 1000 μM,0.09711
same,"Dose-response, AVE of Repeat 1-3 (Fig. 3 g)",[4]; Pro 2000 μM,0.09414
same,"Dose-response, AVE of Repeat 1-3 (Fig. 3 g)",[4]; Pro 4000 μM,0.08171
same,"fluorescence response of GECFINDER to each substrate, AVE of 3 repeats",[2],-0.002038
